{"source": "PubChem BioAssay (NCI)", "assay_in_all_cases": "inhibition of tumour cell growth, NCI panel, 384-well format", "key": {"[1]": {"test_system": "NCI-H322M lung"}, "[2]": {"test_system": "OVCAR-4 ovarian"}, "[3]": {"test_system": "MDA-MB-468 breast"}, "[4]": {"test_system": "HL-60(TB) leukemia"}, "[5]": {"test_system": "CAKI-1 renal"}, "[6]": {"test_system": "SNB-75 CNS"}, "[7]": {"test_system": "MOLT-4 leukemia"}, "[8]": {"test_system": "HOP-62 NSCLC"}, "[9]": {"test_system": "HT29 colon"}, "[10]": {"test_system": "COLO 205 colon"}, "[11]": {"test_system": "A498 renal"}, "[12]": {"test_system": "HCC-2998 colon"}, "[13]": {"test_system": "TK-10 renal"}, "[14]": {"test_system": "UO-31 renal"}, "[15]": {"test_system": "786-0 renal"}, "[16]": {"test_system": "UACC-257 melanoma"}, "[17]": {"test_system": "NCI-H460 NSCLC"}, "[18]": {"test_system": "LOX IMVI melanoma"}, "[19]": {"test_system": "OVCAR-3 ovarian"}, "[20]": {"test_system": "SK-MEL-5 melanoma"}, "[21]": {"test_system": "SK-MEL-28 melanoma"}, "[22]": {"test_system": "HS 578T breast"}, "[23]": {"test_system": "IGROV1 ovarian"}, "[24]": {"test_system": "HCT-116 colon"}, "[25]": {"test_system": "CCRF-CEM leukemia"}, "[26]": {"test_system": "OVCAR-8 ovarian"}, "[27]": {"test_system": "MDA-MB-435 melanoma"}, "[28]": {"test_system": "MALME-3M melanoma"}, "[29]": {"test_system": "A549 NSCLC"}, "[30]": {"test_system": "NCI/ADR-RES ovarian"}, "[31]": {"test_system": "NCI-H226 lung"}, "[32]": {"test_system": "KM12 colon"}, "[33]": {"test_system": "M14 melanoma"}, "[34]": {"test_system": "MCF7 breast"}, "[35]": {"test_system": "EKVX NSCLC"}, "[36]": {"test_system": "PC-3 prostate"}, "[37]": {"test_system": "RXF 393 renal"}, "[38]": {"test_system": "MDA-MB-231 breast"}, "[39]": {"test_system": "BT-549 breast"}, "[40]": {"test_system": "SN12C renal"}, "[41]": {"test_system": "SF-295 CNS"}, "[42]": {"test_system": "SF-268 CNS"}, "[43]": {"test_system": "DU-145 prostate"}, "[44]": {"test_system": "HOP-92 NSCLC"}, "[45]": {"test_system": "OVCAR-5 ovarian"}, "[46]": {"test_system": "SNB-19 CNS"}, "[47]": {"test_system": "SK-OV-3 ovarian"}, "[48]": {"test_system": "SF-539 CNS"}, "[49]": {"test_system": "K-562 leukemia"}, "[50]": {"test_system": "HCT-15 colon"}, "[51]": {"test_system": "ACHN renal"}, "[52]": {"test_system": "NCI-H23 lung"}}, "note": "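GI50: concentration for 50% inhibition of growth. TGI: concentration producing complete growth inhibition.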"}
{"smiles": "Cn1cc(C2=C(c3cn(C4CCN(Cc5ccccn5)CC4)c4ccccc34)C(=O)NC2=O)c2ccccc21", "values": [{"measurement": "GI50", "setting": "[1]", "value": 5.75, "unit": "µM"}, {"measurement": "TGI", "setting": "[1]", "value": "> 100", "unit": "µM"}, {"measurement": "GI50", "setting": "[2]", "value": 3.33, "unit": "µM"}, {"measurement": "TGI", "setting": "[2]", "value": "> 100", "unit": "µM"}, {"measurement": "GI50", "setting": "[3]", "value": 0.274, "unit": "µM"}, {"measurement": "TGI", "setting": "[3]", "value": 0.593, "unit": "µM"}, {"measurement": "GI50", "setting": "[4]", "value": 0.713, "unit": "µM"}, {"measurement": "TGI", "setting": "[4]", "value": 2.54, "unit": "µM"}, {"measurement": "GI50", "setting": "[5]", "value": 3.99, "unit": "µM"}, {"measurement": "TGI", "setting": "[5]", "value": "> 100", "unit": "µM"}, {"measurement": "GI50", "setting": "[6]", "value": 1.41, "unit": "µM"}, {"measurement": "TGI", "setting": "[6]", "value": 7.12, "unit": "µM"}, {"measurement": "GI50", "setting": "[7]", "value": 1.9, "unit": "µM"}, {"measurement": "TGI", "setting": "[7]", "value": 3.35, "unit": "µM"}, {"measurement": "GI50", "setting": "[8]", "value": 3.22, "unit": "µM"}, {"measurement": "TGI", "setting": "[8]", "value": "> 100", "unit": "µM"}, {"measurement": "GI50", "setting": "[9]", "value": 3.29, "unit": "µM"}, {"measurement": "TGI", "setting": "[9]", "value": "> 100", "unit": "µM"}, {"measurement": "GI50", "setting": "[10]", "value": 4.14, "unit": "µM"}, {"measurement": "TGI", "setting": "[10]", "value": "> 100", "unit": "µM"}, {"measurement": "GI50", "setting": "[11]", "value": 0.718, "unit": "µM"}, {"measurement": "TGI", "setting": "[11]", "value": 7.71, "unit": "µM"}, {"measurement": "GI50", "setting": "[12]", "value": 1.5, "unit": "µM"}, {"measurement": "TGI", "setting": "[12]", "value": 12.4, "unit": "µM"}, {"measurement": "GI50", "setting": "[13]", "value": 2.7, "unit": "µM"}, {"measurement": "TGI", "setting": "[13]", "value": "> 100", "unit": "µM"}, {"measurement": "GI50", "setting": "[14]", "value": 1.11, "unit": "µM"}, {"measurement": "TGI", "setting": "[14]", "value": "> 100", "unit": "µM"}, {"measurement": "GI50", "setting": "[15]", "value": 3.31, "unit": "µM"}, {"measurement": "TGI", "setting": "[15]", "value": "> 100", "unit": "µM"}, {"measurement": "GI50", "setting": "[16]", "value": "> 100", "unit": "µM"}, {"measurement": "TGI", "setting": "[16]", "value": "> 100", "unit": "µM"}, {"measurement": "GI50", "setting": "[17]", "value": 0.344, "unit": "µM"}, {"measurement": "TGI", "setting": "[17]", "value": 84, "unit": "µM"}, {"measurement": "GI50", "setting": "[18]", "value": 3.1, "unit": "µM"}, {"measurement": "TGI", "setting": "[18]", "value": "> 100", "unit": "µM"}, {"measurement": "GI50", "setting": "[19]", "value": 0.5, "unit": "µM"}, {"measurement": "TGI", "setting": "[19]", "value": 3.36, "unit": "µM"}, {"measurement": "GI50", "setting": "[20]", "value": 0.372, "unit": "µM"}, {"measurement": "TGI", "setting": "[20]", "value": 95.5, "unit": "µM"}, {"measurement": "GI50", "setting": "[21]", "value": 2.89, "unit": "µM"}, {"measurement": "TGI", "setting": "[21]", "value": "> 100", "unit": "µM"}, {"measurement": "GI50", "setting": "[22]", "value": 2.22, "unit": "µM"}, {"measurement": "TGI", "setting": "[22]", "value": 5.08, "unit": "µM"}, {"measurement": "GI50", "setting": "[23]", "value": 3.57, "unit": "µM"}, {"measurement": "TGI", "setting": "[23]", "value": "> 100", "unit": "µM"}, {"measurement": "GI50", "setting": "[24]", "value": 0.645, "unit": "µM"}, {"measurement": "TGI", "setting": "[24]", "value": "> 100", "unit": "µM"}, {"measurement": "GI50", "setting": "[25]", "value": 0.403, "unit": "µM"}, {"measurement": "TGI", "setting": "[25]", "value": 1.24, "unit": "µM"}, {"measurement": "GI50", "setting": "[26]", "value": 6.7, "unit": "µM"}, {"measurement": "TGI", "setting": "[26]", "value": "> 100", "unit": "µM"}, {"measurement": "GI50", "setting": "[27]", "value": 0.421, "unit": "µM"}, {"measurement": "TGI", "setting": "[27]", "value": 39.4, "unit": "µM"}, {"measurement": "GI50", "setting": "[28]", "value": 2.84, "unit": "µM"}, {"measurement": "TGI", "setting": "[28]", "value": 7.71, "unit": "µM"}, {"measurement": "GI50", "setting": "[29]", "value": 5.18, "unit": "µM"}, {"measurement": "TGI", "setting": "[29]", "value": "> 100", "unit": "µM"}, {"measurement": "GI50", "setting": "[30]", "value": 3.33, "unit": "µM"}, {"measurement": "TGI", "setting": "[30]", "value": "> 100", "unit": "µM"}, {"measurement": "GI50", "setting": "[31]", "value": 3.31, "unit": "µM"}, {"measurement": "TGI", "setting": "[31]", "value": "> 100", "unit": "µM"}, {"measurement": "GI50", "setting": "[32]", "value": 3.93, "unit": "µM"}, {"measurement": "TGI", "setting": "[32]", "value": "> 100", "unit": "µM"}, {"measurement": "GI50", "setting": "[33]", "value": 2.94, "unit": "µM"}, {"measurement": "TGI", "setting": "[33]", "value": 9.21, "unit": "µM"}, {"measurement": "GI50", "setting": "[34]", "value": 2.98, "unit": "µM"}, {"measurement": "TGI", "setting": "[34]", "value": "> 100", "unit": "µM"}, {"measurement": "GI50", "setting": "[35]", "value": 0.917, "unit": "µM"}, {"measurement": "TGI", "setting": "[35]", "value": "> 100", "unit": "µM"}, {"measurement": "GI50", "setting": "[36]", "value": 2.98, "unit": "µM"}, {"measurement": "TGI", "setting": "[36]", "value": "> 100", "unit": "µM"}, {"measurement": "GI50", "setting": "[37]", "value": 2.06, "unit": "µM"}, {"measurement": "TGI", "setting": "[37]", "value": 4.85, "unit": "µM"}, {"measurement": "GI50", "setting": "[38]", "value": 4.21, "unit": "µM"}, {"measurement": "TGI", "setting": "[38]", "value": "> 100", "unit": "µM"}, {"measurement": "GI50", "setting": "[39]", "value": 1.6, "unit": "µM"}, {"measurement": "TGI", "setting": "[39]", "value": "> 100", "unit": "µM"}, {"measurement": "GI50", "setting": "[40]", "value": 1.26, "unit": "µM"}, {"measurement": "TGI", "setting": "[40]", "value": "> 100", "unit": "µM"}, {"measurement": "GI50", "setting": "[41]", "value": 4.48, "unit": "µM"}, {"measurement": "TGI", "setting": "[41]", "value": "> 100", "unit": "µM"}, {"measurement": "GI50", "setting": "[42]", "value": 3, "unit": "µM"}, {"measurement": "TGI", "setting": "[42]", "value": 7.84, "unit": "µM"}, {"measurement": "GI50", "setting": "[43]", "value": 2.65, "unit": "µM"}, {"measurement": "TGI", "setting": "[43]", "value": "> 100", "unit": "µM"}, {"measurement": "GI50", "setting": "[44]", "value": 4.24, "unit": "µM"}, {"measurement": "TGI", "setting": "[44]", "value": "> 100", "unit": "µM"}, {"measurement": "GI50", "setting": "[45]", "value": "> 100", "unit": "µM"}, {"measurement": "TGI", "setting": "[45]", "value": "> 100", "unit": "µM"}, {"measurement": "GI50", "setting": "[46]", "value": 2.61, "unit": "µM"}, {"measurement": "TGI", "setting": "[46]", "value": "> 100", "unit": "µM"}, {"measurement": "GI50", "setting": "[47]", "value": 2.52, "unit": "µM"}, {"measurement": "TGI", "setting": "[47]", "value": "> 100", "unit": "µM"}, {"measurement": "GI50", "setting": "[48]", "value": 1.2, "unit": "µM"}, {"measurement": "TGI", "setting": "[48]", "value": "> 100", "unit": "µM"}, {"measurement": "GI50", "setting": "[49]", "value": 0.454, "unit": "µM"}, {"measurement": "TGI", "setting": "[49]", "value": 1.58, "unit": "µM"}, {"measurement": "GI50", "setting": "[50]", "value": 0.623, "unit": "µM"}, {"measurement": "TGI", "setting": "[50]", "value": "> 100", "unit": "µM"}, {"measurement": "GI50", "setting": "[51]", "value": 8.73, "unit": "µM"}, {"measurement": "TGI", "setting": "[51]", "value": "> 100", "unit": "µM"}, {"measurement": "GI50", "setting": "[52]", "value": 5.28, "unit": "µM"}, {"measurement": "TGI", "setting": "[52]", "value": "> 100", "unit": "µM"}]}
